# System: SUM149PT spheroids with HUVEC/MSC, viability
# Test: Anticancer human tumor SUM149PT cell line growth inhibition [GQUAD];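 note: spheroids exposed to drugs for seven days before readout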;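 for viability, T/C: percent viability relative to DMSO vehicle control taken as 100%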
# Conditions: for IC50: curve of first compound; for viability, T/C: stronger effect = lower value
# In short: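 Multi-cell-type spheroids of tumor cells with HUVEC and mesenchymal stem cells, treated with drug combinations. Concentrations descend in half-log steps from near clinical Cmax, or from 10 microM where Cmax is unknown; viability read-out.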
# [1] = second compound 0.0316 µM, first compound 0.0316 µM
# [2] = second compound 0.0316 µM, first compound 0.1 µM
# [3] = second compound 0.0316 µM, first compound 0.316 µM
# [4] = second compound 0.0316 µM, first compound 1 µM
# [5] = second compound 0.0316 µM, first compound 3.16 µM
# [6] = second compound 0.0316 µM, first compound 10 µM
# [7] = second compound 0.1 µM, first compound 0.0316 µM
# [8] = second compound 0.1 µM, first compound 0.1 µM
# [9] = second compound 0.1 µM, first compound 0.316 µM
# [10] = second compound 0.1 µM, first compound 1 µM
# [11] = second compound 0.1 µM, first compound 3.16 µM
# [12] = second compound 0.1 µM, first compound 10 µM
# [13] = second compound 0.316 µM, first compound 0.0316 µM
# [14] = second compound 0.316 µM, first compound 0.1 µM
# [15] = second compound 0.316 µM, first compound 0.316 µM
# [16] = second compound 0.316 µM, first compound 1 µM
# [17] = second compound 0.316 µM, first compound 3.16 µM
# [18] = second compound 0.316 µM, first compound 10 µM
# [19] = second compound 1 µM, first compound 0.0316 µM
# [20] = second compound 1 µM, first compound 0.1 µM
# [21] = second compound 1 µM, first compound 0.316 µM
# [22] = second compound 1 µM, first compound 1 µM
# [23] = second compound 1 µM, first compound 3.16 µM
# [24] = second compound 1 µM, first compound 10 µM
# [25] = second compound 3.16 µM, first compound 0.0316 µM
# [26] = second compound 3.16 µM, first compound 0.1 µM
# [27] = second compound 3.16 µM, first compound 0.316 µM
# [28] = second compound 3.16 µM, first compound 1 µM
# [29] = second compound 3.16 µM, first compound 3.16 µM
# [30] = second compound 3.16 µM, first compound 10 µM
# [31] = second compound 10 µM, first compound 0.0316 µM
# [32] = second compound 10 µM, first compound 0.1 µM
# [33] = second compound 10 µM, first compound 0.316 µM
# [34] = second compound 10 µM, first compound 1 µM
# [35] = second compound 10 µM, first compound 3.16 µM
# [36] = second compound 10 µM, first compound 10 µM
compound,measurement,setting,value
O=c1[nH]cc(F)c(=O)[nH]1 + Cc1[nH]c2ccc(F)cc2c1-c1nc2c3cccnc3c3ncccc3c2[nH]1,IC50,second compound 0.0316 µM,7.57 µM
same,IC50,second compound 0.1 µM,6.93 µM
same,IC50,second compound 0.316 µM,> 10 µM
same,IC50,second compound 1 µM,7.58 µM
same,IC50,second compound 3.16 µM,5.27 µM
same,IC50,second compound 10 µM,3.52 µM
same,"viability, T/C",[1],103%
same,"viability, T/C",[2],97.3%
same,"viability, T/C",[3],107%
same,"viability, T/C",[4],95.6%
same,"viability, T/C",[5],57.8%
same,"viability, T/C",[6],47.5%
same,"viability, T/C",[7],104%
same,"viability, T/C",[8],101%
same,"viability, T/C",[9],108%
same,"viability, T/C",[10],111%
same,"viability, T/C",[11],58.3%
same,"viability, T/C",[12],46.1%
same,"viability, T/C",[13],99.6%
same,"viability, T/C",[14],104%
same,"viability, T/C",[15],97.7%
same,"viability, T/C",[16],102%
same,"viability, T/C",[17],61.9%
same,"viability, T/C",[18],48.5%
same,"viability, T/C",[19],103%
same,"viability, T/C",[20],107%
same,"viability, T/C",[21],98.4%
same,"viability, T/C",[22],110%
same,"viability, T/C",[23],63.9%
same,"viability, T/C",[24],45.6%
same,"viability, T/C",[25],97.5%
same,"viability, T/C",[26],98.1%
same,"viability, T/C",[27],102%
same,"viability, T/C",[28],103%
same,"viability, T/C",[29],56.2%
same,"viability, T/C",[30],42.1%
same,"viability, T/C",[31],79.9%
same,"viability, T/C",[32],85.1%
same,"viability, T/C",[33],101%
same,"viability, T/C",[34],99.5%
same,"viability, T/C",[35],51.2%
same,"viability, T/C",[36],37.2%
O=c1[nH]cc(F)c(=O)[nH]1 + Cc1cnc(CNC(=O)c2c(=O)c3ccc(N4CCCN(C)CC4)nc3n3c2sc2ccccc23)cn1,IC50,second compound 0.0316 µM,2.63 µM
same,IC50,second compound 0.1 µM,2.12 µM
same,IC50,second compound 0.316 µM,1.5 µM
same,IC50,second compound 1 µM,< 0.0316 µM
same,IC50,second compound 3.16 µM,< 0.0316 µM
same,IC50,second compound 10 µM,< 0.0316 µM
same,"viability, T/C",[1],86.5%
same,"viability, T/C",[2],86.4%
same,"viability, T/C",[3],99.3%
same,"viability, T/C",[4],75.6%
same,"viability, T/C",[5],46.1%
same,"viability, T/C",[6],34.8%
same,"viability, T/C",[7],73.6%
same,"viability, T/C",[8],64%
same,"viability, T/C",[9],82.7%
same,"viability, T/C",[10],67.2%
same,"viability, T/C",[11],40.8%
same,"viability, T/C",[12],32%
same,"viability, T/C",[13],51.1%
same,"viability, T/C",[14],61.2%
same,"viability, T/C",[15],55%
same,"viability, T/C",[16],55.2%
same,"viability, T/C",[17],40.5%
same,"viability, T/C",[18],31.2%
same,"viability, T/C",[19],43.4%
same,"viability, T/C",[20],43.5%
same,"viability, T/C",[21],51.5%
same,"viability, T/C",[22],40.9%
same,"viability, T/C",[23],35.8%
same,"viability, T/C",[24],29.4%
same,"viability, T/C",[25],38.2%
same,"viability, T/C",[26],36.2%
same,"viability, T/C",[27],38.7%
same,"viability, T/C",[28],36.5%
same,"viability, T/C",[29],36%
same,"viability, T/C",[30],30.3%
same,"viability, T/C",[31],18.6%
same,"viability, T/C",[32],9.86%
same,"viability, T/C",[33],31.9%
same,"viability, T/C",[34],31.5%
same,"viability, T/C",[35],11%
same,"viability, T/C",[36],2.12%
COc1ccc([C@@H](O)c2cc(-c3ncnc4cc(N5CCOCC5)ccc34)c(F)cc2Cl)nn1 + Cc1cnc(CNC(=O)c2c(=O)c3ccc(N4CCCN(C)CC4)nc3n3c2sc2ccccc23)cn1,IC50,second compound 0.0316 µM,0.385 µM
same,IC50,second compound 0.1 µM,0.142 µM
same,IC50,second compound 0.316 µM,0.0611 µM
same,IC50,second compound 1 µM,< 0.0316 µM
same,IC50,second compound 3.16 µM,< 0.0316 µM
same,IC50,second compound 10 µM,< 0.0316 µM
same,"viability, T/C",[1],88.4%
same,"viability, T/C",[2],68.2%
same,"viability, T/C",[3],55.8%
same,"viability, T/C",[4],35.8%
same,"viability, T/C",[5],24.5%
same,"viability, T/C",[6],18.5%
same,"viability, T/C",[7],65.8%
same,"viability, T/C",[8],51.8%
same,"viability, T/C",[9],44.1%
same,"viability, T/C",[10],25.5%
same,"viability, T/C",[11],21.5%
same,"viability, T/C",[12],16.3%
same,"viability, T/C",[13],53%
same,"viability, T/C",[14],48.2%
same,"viability, T/C",[15],36%
same,"viability, T/C",[16],24.5%
same,"viability, T/C",[17],19.2%
same,"viability, T/C",[18],14.8%
same,"viability, T/C",[19],43.4%
same,"viability, T/C",[20],38.9%
same,"viability, T/C",[21],35.4%
same,"viability, T/C",[22],23.2%
same,"viability, T/C",[23],19.6%
same,"viability, T/C",[24],15.7%
same,"viability, T/C",[25],34.5%
same,"viability, T/C",[26],34.1%
same,"viability, T/C",[27],29.4%
same,"viability, T/C",[28],20.7%
same,"viability, T/C",[29],17.6%
same,"viability, T/C",[30],13.3%
same,"viability, T/C",[31],0.17%
same,"viability, T/C",[32],1.03%
same,"viability, T/C",[33],0.2%
same,"viability, T/C",[34],0.32%
same,"viability, T/C",[35],1.7%
same,"viability, T/C",[36],1.3%

# — PubChem BioAssay AID2060484 (Molecular Pharmacology Branch, DTP, NCI, 2025)
